Source: patent US8952024B2, “Herbicidal pyrimidone derivatives” (E I du Pont de Nemours and Company, priority 2009, dated 2015)

Legend:
Assay in all cases: Test B pre-/postemergence plant response
Type in all cases: in vivo
kochia (Kochia scoparia) = tested on: kochia (Kochia scoparia)
Method in brief: (§1)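 Pre-em in loam/sand; post-em at 1–4 leaf (2–18 cm) in peat mix. Solvent + surfactant formulation. Greenhouse 13–15 d; visual % control vs untreated, 0–100.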

[1] = tested on: large crabgrass (Digitaria sanguinalis)
Method in brief: as §1

[2] = tested on: yellow nutsedge (Cyperus esculentus)
Method in brief: as §1

corn (Zea mays) = tested on: corn (Zea mays)
Method in brief: as §1

[3] = tested on: green foxtail (Setaria viridis)
Method in brief: as §1

[4] = tested on: johnsongrass (Sorghum halepense)
Method in brief: as §1

[5] = tested on: downy bromegrass (Bromus tectorum)
Method in brief: as §1

[6] = tested on: Surinam grass (Brachiaria decumbens)
Method in brief: as §1

[7] = tested on: velvetleaf (Abutilon theophrasti)
Method in brief: as §1

[8] = tested on: morningglory (Ipomoea coccinea)
Method in brief: as §1

[9] = tested on: goosegrass (Eleusine indica)
Method in brief: as §1

[10] = tested on: blackgrass (Alopecurus myosuroides)
Method in brief: as §1

[11] = tested on: woolly cupgrass (Eriochloa villosa)
Method in brief: as §1

[12] = tested on: cocklebur (Xanthium strumarium)
Method in brief: as §1

soybean (Glycine max) = tested on: soybean (Glycine max)
Method in brief: as §1

[13] = tested on: giant foxtail (Setaria faberii)
Method in brief: as §1

wild oat (Avena fatua) = tested on: wild oat (Avena fatua)
Method in brief: as §1

[14] = Postemergence, 31 g ai/ha, 0 to 100 scale (0 no effect, 100 complete control)
[15] = Postemergence, 125 g ai/ha, scale 0 to 100 (0 no effect, 100 complete control)
[16] = Postemergence, 250 g ai/ha, scale 0 to 100 (0 no effect, 100 complete control), 13 to 15 days
[17] = Postemergence, 62 g ai/ha, scale 0 to 100 (0 no effect, 100 complete control)
[18] = Postemergence, 125 g ai/ha, scale 0 (no effect) to 100 (complete control), 13 to 15 days
[19] = Preemergence, 31 g ai/ha, scale 0 to 100 (0 no effect, 100 complete control)
[20] = Preemergence, 62 g ai/ha, scale 0 to 100, 0 no effect, 100 complete control
[21] = Preemergence, 125 g ai/ha, scale 0 to 100, 0 no effect, 100 complete control
[22] = Preemergence, 250 g ai/ha, 0 to 100 scale

CCn1c(-c2cccc(F)c2)ncc(C(=O)C2=C(O)C3CCC(C3)C2=O)c1=O (stereo not shown) [Compound 236]
55: Plant response rating, Johnsongrass [4, 16]
10: Plant response rating, Bromegrass, Downy [5, 15]
95: Plant response rating, Foxtail, Green [3, 17] | Plant response rating, Morningglory [8, 15] | Plant response rating, Morningglory [8, 17] | Plant response rating, Goosegrass [9, 15] | Plant response rating, Cupgrass, Woolly [11, 15] | Plant response rating, Foxtail, Giant [13, 15]
15: Plant response rating, Nutsedge, Yellow [2, 15] | Plant response rating, Nutsedge, Yellow [2, 17] | Plant response rating, Corn (corn (Zea mays); [14]) | Plant response rating, Johnsongrass [4, 17]
5: Plant response rating, Bromegrass, Downy [5, 17] | Plant response rating, Blackgrass [10, 17]
40: Plant response rating, Blackgrass [10, 16]
90: Plant response rating, Crabgrass, Large [1, 17] | Plant response rating, Goosegrass [9, 17] | Plant response rating, Soybean (soybean (Glycine max); [14])
100: Plant response rating, Kochia (kochia (Kochia scoparia); [15]) | Plant response rating, Kochia (kochia (Kochia scoparia); [16]) | Plant response rating, Crabgrass, Large [1, 16] | Plant response rating, Velvetleaf [7, 16] | Plant response rating, Velvetleaf [7, 17] | Plant response rating, Goosegrass [9, 16] | Plant response rating, Cocklebur [12, 15] | Plant response rating, Cocklebur [12, 16] | Plant response rating, Cocklebur [12, 17] | Plant response rating, Soybean (soybean (Glycine max); [16])
98: Plant response rating, Kochia (kochia (Kochia scoparia); [17]) | Plant response rating, Crabgrass, Large [1, 15] | Plant response rating, Foxtail, Green [3, 15] | Plant response rating, Foxtail, Green [3, 16] | Plant response rating, Velvetleaf [7, 14] | Plant response rating, Soybean (soybean (Glycine max); [17]) | Plant response rating, Foxtail, Giant [13, 16]
60: Plant response rating, Corn (corn (Zea mays); [17]) | Plant response rating, Surinam Grass [6, 14] | Plant response rating, Morningglory [8, 14] | Plant response rating, Oat, Wild (wild oat (Avena fatua); [16])
80: Plant response rating, Kochia (kochia (Kochia scoparia); [14]) | Plant response rating, Foxtail, Green [3, 14] | Plant response rating, Goosegrass [9, 14] | Plant response rating, Foxtail, Giant [13, 17]
75: Plant response rating, Crabgrass, Large [1, 14] | Plant response rating, Foxtail, Giant [13, 14]
30: Plant response rating, Blackgrass [10, 15]
20: Plant response rating, Johnsongrass [4, 15]
0: Plant response rating, Nutsedge, Yellow [2, 14] | Plant response rating, Johnsongrass [4, 14] | Plant response rating, Bromegrass, Downy [5, 14] | Plant response rating, Blackgrass [10, 14] | Plant response rating, Oat, Wild (wild oat (Avena fatua); [14]) | Plant response rating, Oat, Wild (wild oat (Avena fatua); [17])
65: Plant response rating, Nutsedge, Yellow [2, 16]
70: Plant response rating, Corn (corn (Zea mays); [15]) | Plant response rating, Surinam Grass [6, 17] | Plant response rating, Cupgrass, Woolly [11, 14]
85: Plant response rating, Cupgrass, Woolly [11, 17]
25: Plant response rating, Bromegrass, Downy [5, 16]

COCCCn1c(-c2cc(F)cc(F)c2)ncc(C(=O)C2=C(O)C3CCC(C3)C2=O)c1=O (stereo not shown) [Compound 244]
20: Plant response rating, Nutsedge, Yellow [2, 19]
75: Plant response rating, Nutsedge, Yellow [2, 16] | Plant response rating, Bromegrass, Downy [5, 18] | Plant response rating, Surinam Grass [6, 19]
85: Plant response rating, Kochia (kochia (Kochia scoparia); [14]) | Plant response rating, Kochia (kochia (Kochia scoparia); [19]) | Plant response rating, Corn (corn (Zea mays); [14]) | Corn plant response rating (corn (Zea mays); [22]) | Plant response rating, Foxtail, Green [3, 14] | Plant response rating, Johnsongrass [4, 14] | Plant response rating, Johnsongrass [4, 20] | Plant response rating, Morningglory [8, 19] | Plant response rating, Goosegrass [9, 14] | Plant response rating, Blackgrass [10, 16] | Plant response rating, Soybean (soybean (Glycine max); [14])
55: Plant response rating, Cupgrass, Woolly [11, 20]
98: Plant response rating, Crabgrass, Large [1, 19] | Plant response rating, Foxtail, Green [3, 18] | Plant response rating, Foxtail, Green [3, 17] | Plant response rating, Morningglory [8, 21] | Plant response rating, Goosegrass [9, 18] | Plant response rating, Goosegrass [9, 16] | Plant response rating, Goosegrass [9, 19] | Plant response rating, Oat, Wild (wild oat (Avena fatua); [16])
45: Plant response rating, Nutsedge, Yellow [2, 14] | Plant response rating, Foxtail, Green [3, 20] | Plant response rating, Cupgrass, Woolly [11, 19]
80: Plant response rating, Crabgrass, Large [1, 14] | Plant response rating, Nutsedge, Yellow [2, 21] | Plant response rating, Bromegrass, Downy [5, 16] | Plant response rating, Soybean (soybean (Glycine max); [20]) | Plant response rating, Foxtail, Giant [13, 20]
10: Plant response rating, Oat, Wild (wild oat (Avena fatua); [21])
35: Plant response rating, Blackgrass [10, 19] | Plant response rating, Blackgrass [10, 20]
65: Plant response rating, Nutsedge, Yellow [2, 18] | Plant response rating, Blackgrass [10, 18]
95: Plant response rating, Kochia (kochia (Kochia scoparia); [21]) | Nutsedge, Yellow plant response rating [2, 22] | Plant response rating, Corn (corn (Zea mays); [18]) | Plant response rating, Johnsongrass [4, 17] | Plant response rating, Surinam Grass [6, 17] | Plant response rating, Morningglory [8, 17] | Plant response rating, Goosegrass [9, 17] | Plant response rating, Cupgrass, Woolly [11, 21] | Soybean plant response rating (soybean (Glycine max); [22]) | Plant response rating, Foxtail, Giant [13, 14] | Plant response rating, Foxtail, Giant [13, 18] | Plant response rating, Foxtail, Giant [13, 17] | Plant response rating, Oat, Wild (wild oat (Avena fatua); [18])
0: Plant response rating, Foxtail, Green [3, 19] | Plant response rating, Bromegrass, Downy [5, 19] | Plant response rating, Bromegrass, Downy [5, 20] | Plant response rating, Oat, Wild (wild oat (Avena fatua); [19])
40: Plant response rating, Bromegrass, Downy [5, 14] | Oat, Wild plant response rating (wild oat (Avena fatua); [22])
50: Plant response rating, Nutsedge, Yellow [2, 17] | Plant response rating, Bromegrass, Downy [5, 17] | Plant response rating, Blackgrass [10, 14] | Plant response rating, Oat, Wild (wild oat (Avena fatua); [14])
70: Plant response rating, Johnsongrass [4, 19] | Blackgrass plant response rating [10, 22] | Plant response rating, Soybean (soybean (Glycine max); [19]) | Plant response rating, Oat, Wild (wild oat (Avena fatua); [17])
25: Plant response rating, Corn (corn (Zea mays); [20])
60: Plant response rating, Nutsedge, Yellow [2, 20] | Plant response rating, Corn (corn (Zea mays); [21]) | Plant response rating, Blackgrass [10, 17] | Plant response rating, Blackgrass [10, 21] | Plant response rating, Foxtail, Giant [13, 19]
90: Plant response rating, Kochia (kochia (Kochia scoparia); [17]) | Plant response rating, Kochia (kochia (Kochia scoparia); [20]) | Plant response rating, Corn (corn (Zea mays); [17]) | Plant response rating, Foxtail, Green [3, 21] | Foxtail, Green plant response rating [3, 22] | Plant response rating, Surinam Grass [6, 14] | Plant response rating, Morningglory [8, 14] | Plant response rating, Morningglory [8, 20] | Plant response rating, Cocklebur [12, 20] | Plant response rating, Soybean (soybean (Glycine max); [21])
100: Plant response rating, Kochia (kochia (Kochia scoparia); [18]) | Plant response rating, Kochia (kochia (Kochia scoparia); [16]) | Kochia plant response rating (kochia (Kochia scoparia); [22]) | Plant response rating, Crabgrass, Large [1, 18] | Plant response rating, Crabgrass, Large [1, 16] | Plant response rating, Crabgrass, Large [1, 17] | Plant response rating, Crabgrass, Large [1, 20] | Plant response rating, Crabgrass, Large [1, 21] | Crabgrass, Large plant response rating [1, 22] | Plant response rating, Corn (corn (Zea mays); [16]) | Plant response rating, Foxtail, Green [3, 16] | Plant response rating, Johnsongrass [4, 18] | Plant response rating, Johnsongrass [4, 16] | Plant response rating, Johnsongrass [4, 21] | Johnsongrass plant response rating [4, 22] | Plant response rating, Surinam Grass [6, 18] | Plant response rating, Surinam Grass [6, 16] | Plant response rating, Surinam Grass [6, 20] | Plant response rating, Surinam Grass [6, 21] | Surinam Grass plant response rating [6, 22] | Plant response rating, Velvetleaf [7, 14] | Plant response rating, Velvetleaf [7, 18] | Plant response rating, Velvetleaf [7, 16] | Plant response rating, Velvetleaf [7, 17] | Plant response rating, Velvetleaf [7, 19] | Plant response rating, Velvetleaf [7, 20] | Plant response rating, Velvetleaf [7, 21] | Velvetleaf plant response rating [7, 22] | Plant response rating, Morningglory [8, 18] | Plant response rating, Morningglory [8, 16] | Morningglory plant response rating [8, 22] | Plant response rating, Goosegrass [9, 20] | Plant response rating, Goosegrass [9, 21] | Goosegrass plant response rating [9, 22] | Plant response rating, Cupgrass, Woolly [11, 14] | Plant response rating, Cupgrass, Woolly [11, 18] | Plant response rating, Cupgrass, Woolly [11, 16] | Plant response rating, Cupgrass, Woolly [11, 17] | Cupgrass, Woolly plant response rating [11, 22] | Plant response rating, Cocklebur [12, 21] | Cocklebur plant response rating [12, 22] | Plant response rating, Soybean (soybean (Glycine max); [18]) | Plant response rating, Soybean (soybean (Glycine max); [16]) | Plant response rating, Soybean (soybean (Glycine max); [17]) | Plant response rating, Foxtail, Giant [13, 16] | Plant response rating, Foxtail, Giant [13, 21] | Foxtail, Giant plant response rating [13, 22]
5: Plant response rating, Corn (corn (Zea mays); [19]) | Plant response rating, Bromegrass, Downy [5, 21] | Plant response rating, Oat, Wild (wild oat (Avena fatua); [20])
30: Bromegrass, Downy plant response rating [5, 22]
